Results taken from US11904042B2, “Hair coloring composition and methods for its application and removal” (HFC Prestige International Holding Switzerland S.a.r.l, priority 2018, dated 2024).

Assays:
Conditions in all cases: after 15 washes
[1] = Example 2A: azo dye in multicomponent kit (Michael addition), color result and wash fastness
Description: (§1) Pretreatment to Apply Cationic Polymer (PEI, Polyethylenimine) on the Hair Fiber Surface: • 1 ml of PEI solution (0.5% aqueous solution of PEI (MW: 75 kDa) is applied on the hair strand. • The hair strand is dried via blow-dryer, followed by further drying at 40° C. in the oven.
100 mg azo dye is suspended in 1 g THF, and 8.4 g Isododecane (2,2,4,6,6-pentamethylheptane) solution are added as solvent. Subsequently, 200 mg Silmer OH ACR DI-10 polymer (acrylate derivative) and 300 mg Silamine 2972 is added to the reaction mixture. The mixture is stirred at room temperature for 5 min.
(§2) 1 g of the above prepared formulation is applied on a pre-treated hair tress (as described above) and the polymers are allowed to react to start forming a film immobilizing the added dye. After removing the excess of the formulation, the film forming reaction is completed as the hair tress is dried via a heat blower.

[2] = Example 2B: azo dye in multicomponent kit (isocyanate / OH silicone), color result and wash fastness
Description: as §1
100 mg azo dye are mixed with 300 mg isocyanate polymer (Silmer NCO DI50); 9.4 g 2,2,4,6,6-pentamethylheptane are added and the mixture is well shaked.
Subsequently, 200 mg OH Silicone (Silmer OHT C-50) are added to the reaction mixture. The mixture is stirred at room temperature for 5 min.
as §2

[3] = Example 2C: azo dye in multicomponent kit (silicone & carbon-hybrid system), color result and wash fastness
Description: as §1
100 mg azo dye are mixed with 400 mg isocyanate polymer (Melio 09-S-11); 9.3 g 1-Methoxy-2-propanol are added and the mixture is well shaked.
as §2, with “Subsequently, 200 mg OH Silicone (Silmer OHT C-50) are added to the reaction mixture. The mixture is stirred at room temperature for 5 min. 1” for “1”

| SMILES | color remains to an extent of [1] | color remains to an extent of [2] | color remains to an extent of [3] |
| --- | --- | --- | --- |
| CCN(CCO)c1ccc(/N=N/c2nc(Cl)c(C=C3C(=O)c4ccccc4C3=O)s2)cc1 [blue azo, 2-{[4-chloro-2-((E)-{4-[ethyl(2-hydroxyethyl)amino]phenyl}diazenyl)-1,3-thiazol-5-yl]methylidene}-1H-indene-1,3(2H)-dione] | 80% | 90% | 80% |
| CCN(CCO)c1ccc(/N=N/c2nc(N3CCN(C)CC3)c(C=C3C(=O)c4ccccc4C3=O)s2)cc1 [black azo, 2-[[2-[(E)-[4-[ethyl(2-hydroxyethyl)amino]phenyl]azo]-4-(4-methylpiperazin-1-yl)thiazol-5-yl]methylene]indane-1,3-dione] | 30% | 50% | 80% |
